Data: patent US20110105515A1, “TARGETING THE ONCOPROTEIN NUCLEOPHOSMIN” (President and Fellows of Harvard College, priority 2007, published 2011)

Assays:
HCT-116 = HCT-116 (Colon Cancer), 48 hours, SRB
SF-295 = SF-295 (CNS Cancer), 48 hours, SRB
HS578T = HS578T (Breast Cancer), 48 hours, SRB
SF-268 = SF-268 (CNS Cancer), 48 hours, SRB
DU-145 = DU-145 (Prostate Cancer), 48 hours, SRB
786-0 = 786-0 (Renal Cancer), 48 hours, SRB
LOX IMVI = LOX IMVI (Melanoma), 48 hours, SRB
HCT-15 = HCT-15 (Colon Cancer), 48 hours, SRB
UACC62 = UACC62 (Melanoma), 48 hours, SRB
SNB-75 = SNB-75 (CNS Cancer), 48 hours, SRB
MDA-MB-435 = MDA-MB-435 (Breast Cancer), 48 hours, SRB
A549/ATCC = A549/ATCC (Non-Small Cell Lung Cancer), 48 hours, SRB
NCI-H23 = NCI-H23 (Non-Small Cell Lung Cancer), 48 hours, SRB
COLO 205 = COLO 205 (Colon Cancer), 48 hours, SRB
A498 = A498 (Renal Cancer), 48 hours, SRB
KM12 = KM12 (Colon Cancer), 48 hours, SRB
SK-MEL-28 = SK-MEL-28 (Melanoma), 48 hours, SRB
HL-60(TB) = HL-60(TB) (Leukemia), 48 hours, SRB
HT29 = HT29 (Colon Cancer), 48 hours, SRB
RPMI-8226 = RPMI-8226 (Leukemia), 48 hours, SRB
EKVX = EKVX (Non-Small Cell Lung Cancer), 48 hours, SRB
OVCAR-5 = OVCAR-5 (Ovarian Cancer), 48 hours, SRB
MDA-MB-231/ATCC = MDA-MB-231/ATCC (Breast Cancer), 48 hours, SRB
HOP-62 = HOP-62 (Non-Small Cell Lung Cancer), 48 hours, SRB
MALME-3M = MALME-3M (Melanoma), 48 hours, SRB
SW-620 = SW-620 (Colon Cancer), 48 hours, SRB
NCI-H460 = NCI-H460 (Non-Small Cell Lung Cancer), 48 hours, SRB
OVCAR-3 = OVCAR-3 (Ovarian Cancer), 48 hours, SRB
SNB-19 = SNB-19 (CNS Cancer), 48 hours, SRB
SK-MEL-2 = SK-MEL-2 (Melanoma), 48 hours, SRB
IGROV1 = IGROV1 (Ovarian Cancer), 48 hours, SRB

Compound: Cc1cc(C)cc(-c2ccc3c(c2)[N+]([O-])=C2C3=C[C@@]34NC(=O)C5(CCCN5C3=O)CC4C2(C)C)c1 (stereo partly shown) [Biphenyl Analogue]
- TGI (HCT-116): 377 nM
- TGI (SF-295): 1540 nM
- TGI (HS578T): 18900 nM
- TGI (SF-268): 767 nM
- TGI (DU-145): 813 nM
- TGI (786-0): 398 nM
- TGI (LOX IMVI): 273 nM
- TGI (HCT-15): 322 nM
- TGI (UACC62): 471 nM
- TGI (SNB-75): 757 nM
- TGI (MDA-MB-435): 440 nM
- TGI (A549/ATCC): 834 nM
- TGI (NCI-H23): 840 nM
- TGI (COLO 205): 259 nM
- TGI (A498): 1320 nM
- TGI (KM12): 740 nM
- TGI (SK-MEL-28): 1080 nM
- TGI (HL-60(TB)): 655 nM
- TGI (HT29): >100000 nM
- TGI (RPMI-8226): 48.6 nM
- TGI (EKVX): 1110 nM
- TGI (OVCAR-5): 1700 nM
- TGI (MDA-MB-231/ATCC): 1050 nM
- TGI (HOP-62): 3320 nM
- TGI (MALME-3M): 244 nM
- TGI (SW-620): 349 nM
- TGI (NCI-H460): 1180 nM
- TGI (OVCAR-3): 395 nM
- TGI (SNB-19): 950 nM

Compound: CN(C)c1cccc2c(S(=O)(=O)NCCCCCCCCCCOc3ccc4c(c3)[N+]([O-])=C3C4=C[C@@]45NC(=O)C6(CCCN6C4=O)CC5C3(C)C)cccc12 (stereo partly shown) [Dansyl Analogue]
- GI50 (HCT-116): 349 nM
- TGI (HCT-116): 1150 nM
- CC50 (HCT-116; read-out: LC50): 5980 nM
- GI50 (SF-295): 1730 nM
- TGI (SF-295): 4630 nM
- CC50 (SF-295; read-out: LC50): 49400 nM
- GI50 (SK-MEL-2): 1070 nM
- TGI (SK-MEL-2): 3230 nM
- CC50 (SK-MEL-2; read-out: LC50): 9820 nM
- GI50 (HS578T): 355 nM
- TGI (HS578T): 36900 nM
- CC50 (HS578T; read-out: LC50): > 100000 nM
- GI50 (SF-268): 282 nM
- TGI (SF-268): 853 nM
- CC50 (SF-268; read-out: LC50): 3690 nM
- GI50 (DU-145): 271 nM
- TGI (DU-145): 706 nM
- CC50 (DU-145; read-out: LC50): 2450 nM
- GI50 (786-0): 325 nM
- TGI (786-0): 1070 nM
- CC50 (786-0; read-out: LC50): 5210 nM
- GI50 (LOX IMVI): 166 nM
- TGI (LOX IMVI): 310 nM
- CC50 (LOX IMVI; read-out: LC50): 579 nM
- GI50 (HCT-15): 484 nM
- TGI (HCT-15): 1750 nM
- CC50 (HCT-15; read-out: LC50): 4180 nM
- GI50 (UACC62): 565 nM
- TGI (UACC62): 1880 nM
- CC50 (UACC62; read-out: LC50): 4880 nM
- GI50 (SNB-75): 273 nM
- TGI (SNB-75): 930 nM
- CC50 (SNB-75; read-out: LC50): 3430 nM
- GI50 (MDA-MB-435): 382 nM
- TGI (MDA-MB-435): 1920 nM
- CC50 (MDA-MB-435; read-out: LC50): 23100 nM
- GI50 (A549/ATCC): 2170 nM
- TGI (A549/ATCC): 5370 nM
- CC50 (A549/ATCC; read-out: LC50): 18100 nM
- GI50 (NCI-H23): 581 nM
- TGI (NCI-H23): 2480 nM
- CC50 (NCI-H23; read-out: LC50): 9050 nM
- GI50 (COLO 205): 328 nM
- TGI (COLO 205): 1140 nM
- CC50 (COLO 205; read-out: LC50): 3860 nM
- GI50 (A498): 250 nM
- TGI (A498): 1010 nM
- CC50 (A498; read-out: LC50): 4400 nM
- GI50 (KM12): 1250 nM
- TGI (KM12): 2880 nM
- CC50 (KM12; read-out: LC50): 6600 nM
- GI50 (SK-MEL-28): 282 nM
- TGI (SK-MEL-28): 678 nM
- GI50 (HL-60(TB)): 211 nM
- TGI (HL-60(TB)): 1160 nM
- CC50 (HL-60(TB); read-out: LC50): > 100000 nM
- GI50 (HT29): 454 nM
- TGI (HT29): 1510 nM
- CC50 (HT29; read-out: LC50): 3960 nM
- GI50 (RPMI-8226): 282 nM
- TGI (RPMI-8226): >100000 nM
- CC50 (RPMI-8226; read-out: LC50): > 100000 nM
- GI50 (EKVX): 540 nM
- TGI (EKVX): 3630 nM
- CC50 (EKVX; read-out: LC50): 37000 nM
- GI50 (OVCAR-5): 1460 nM
- TGI (OVCAR-5): 2960 nM
- CC50 (OVCAR-5; read-out: LC50): 5970 nM
- GI50 (MDA-MB-231/ATCC): 242 nM
- TGI (MDA-MB-231/ATCC): 584 nM
- CC50 (MDA-MB-231/ATCC; read-out: LC50): 40500 nM
- GI50 (HOP-62): 2380 nM
- TGI (HOP-62): 4640 nM
- CC50 (HOP-62; read-out: LC50): 9020 nM
- GI50 (MALME-3M): 426 nM
- TGI (MALME-3M): 2110 nM
- GI50 (SW-620): 266 nM
- GI50 (NCI-H460): 700 nM
- TGI (NCI-H460): 1990 nM
- CC50 (NCI-H460; read-out: LC50): 4640 nM
- GI50 (OVCAR-3): 201 nM
- TGI (OVCAR-3): 413 nM
- CC50 (OVCAR-3; read-out: LC50): 849 nM
- GI50 (SNB-19): 359 nM
- TGI (SNB-19): 1440 nM
- CC50 (SNB-19; read-out: LC50): 4100 nM
- GI50 (IGROV1): 272 nM
- TGI (IGROV1): 695 nM
- CC50 (IGROV1; read-out: LC50): 3390 nM
